Measured values published in US20130184246A1, “METHOD FOR TREATING FATTY LIVER DISEASES, IN PARTICULAR NON-ALCOHOLIC STEATOHEPATITIS” (priority 2010, published 2013).

Experiments:
LDLr−/− mice [1] = assay: Plasma lipid analysis, NASH treatment with 27-HC; assay type: in vivo
Method: (§1) The experimental approach consisted of utilizing low-density (LDL) receptor-deficient mice (LDLr−/−) on a C57B16 background. This mouse model is predisposed to elevated serum cholesterol levels when fed a high-fat diet. On a normal chow diet, these mice have a three-fold increase in cholesterol levels when compared to controls.^(39) The lab determined that two weeks is sufficient for mice to reach a steatotic and inflamed liver state.
Experiments were performed in accordance with Dutch law for animal experimentation and approved by the Committee for Animal Welfare of the University of Maastricht. In this study, the aim was to investigate the ability of 27-hydroxycholesterol (generous gift from Dr. Norman B. Javitt; New York University School of Medicine) to reduce hepatic inflammation and to characterize its potential use as a therapeutic agent for NASH patients. […]
Plasma cholesterol and triglyceride measurements were tested with the enzymatic color tests. […] Absorbance was measured at the 490 nm wavelength with a Benchmark 550 Micro-plate reader. […] Subsequently, 200 μl of reagent A was added, mixed, and after 15 minutes of incubation, read at a wavelength of 545 nm for the initial absorbance. […] The final absorbance was then measured at 545 nm. The concentration of triglycerides was then calculated by subtracting the initial concentrations from the final concentrations. […]

LDLr−/− mice [2] = assay: Liver lipid analysis, NASH treatment with 27-HC; assay type: in vivo
Method: as §1
Experiments were performed in accordance with Dutch law for animal experimentation and approved by the Committee for Animal Welfare of the University of Maastricht. […]
Homogenization of approximately 50 mg of frozen liver tissue was completed at 5000 rpm for 30 seconds with 1.0 mm glass beads along with 1.0 ml SET buffer (sucrose 250 mmol/L, EDTA 2 mmol/L, and Tris 10 mmol/L). […] After adding 200 μl of the reagents (50 parts A, 1 part B) and letting the mixture stand for 30 minutes at 37° C., the absorbance was measured utilizing the enzymatic color test bicinchoninic acid (BCA) method (Pierce, Rockford, Ill.) at a wavelength of 560 nm with a Benchmark 550 Micro-plate reader (170-6750XTU; Bio-Rad, Hercules, Calif.). […]

LDLr−/− mice [3] = assay: Steatosis scoring by HE and oil red O staining of liver sections; assay type: in vivo; conditions: high-fat diet 27-HC-treated groups
Method: A total of five different experimental groups, ranging from eigtht to nine mice per group, were used to assess the effects of 27-HC. The 27-HC was dissolved in 2-hydroxypropyl-β-cyclodextrin (Sigma-Aldrich GmbH H5784; St. Louis, Mo.) and injected with a concentration of 40 mg of 27-HC per kilogram of body weight via a subcutaneous injection. Mice in Group A received a chow diet and control injections consisting of 2-hydroxypropyl-β-cyclodextrin dissolved in sodium chloride. Group B mice were also on the chow diet but are given daily subcutaneous injections of 27-HC. Group C were the mice that received the high-fat diet (21% fat; 0.2% cholesterol) and control injections. To differentiate between a therapeutic and a regression effect of the 27-HC, the following two groups were set up: a high-fat diet with daily 27-HC injections (Group D) and a high-fat diet group with two weeks of control injections followed by a week of 27-HC injections (Group E). Mice were housed under standard conditions with food and water available ad libidum. […]
Stained sections were scored in a blind manner by a specialized animal pathologist. […] Sections were scored for the quantity of fat droplets and for the foamy appearance of Kupffer cells. […]
To verify the quantification of fat, 7 μm thick frozen sections were stained with oil red O (ORO; O0725; Sigma-Aldrich), the neutral lipid marker. […]

LDLr−/− mice [4] = assay: Hepatic inflammation: immunohistochemical staining for infiltrated macrophages (MAC1) and neutrophils (NIMP); assay type: in vivo; conditions: vs Group C; for Infiltrated macrophages (MAC1 staining): FIG. 3A
Method: A total of five different experimental groups, ranging from eigtht to nine mice per group, were used to assess the effects of 27-HC. The 27-HC was dissolved in 2-hydroxypropyl-β-cyclodextrin (Sigma-Aldrich GmbH H5784; St. Louis, Mo.) and injected with a concentration of 40 mg of 27-HC per kilogram of body weight via a subcutaneous injection. Mice in Group A received a chow diet and control injections consisting of 2-hydroxypropyl-β-cyclodextrin dissolved in sodium chloride. Group B mice were also on the chow diet but are given daily subcutaneous injections of 27-HC. Group C were the mice that received the high-fat diet (21% fat; 0.2% cholesterol) and control injections. To differentiate between a therapeutic and a regression effect of the 27-HC, the following two groups were set up: a high-fat diet with daily 27-HC injections (Group D) and a high-fat diet group with two weeks of control injections followed by a week of 27-HC injections (Group E). Mice were housed under standard conditions with food and water available ad libidum.
One day previous to the start of the experiment, the mice were weighed and 100-200 μl of blood were collected in a capillary tube after four hours of fasting via an incision in the tail vein. On day 0, the feeding of specialized diets and injections began according to each group. On the 21st day after the start of the experiment, the animals were weighed and fasted for four hours and had another 100-200 μl of blood drawn and collected in a capillary tube via an incision in the tail vein. Afterwards, the mice were sacrificed via cervical dislocation and immediately had their livers removed via a laparotomy consisting of an incision from the pelvis to the rib cage to gain access into the abdomen. […]
Nikon digital camera model DMX1200 and ACT-1 v2.63 software from Nikon Corporation were used to photograph each section. […] The positive cells for each picture were then counted or scored and noted as cells or lipid droplets per square millimeter, respectively.

fibroblasts = assay: Incubation of fibroblasts with 27-HC, endolysosomal cholesterol accumulation; assay type: cell-based
[5] = tested on: hyperlipidemic LDLR knockout mice; assay: HFC diet supplemented with 27-hydroxycholesterol in hyperlipidemic LDLR knockout mice; assay type: in vivo; conditions: HFC diet supplemented with 27-hydroxycholesterol 0.1% w/w for three weeks vs HFC diet
Description: To determine whether exogenous 27-HC can reduce hepatic inflammation, hyperlipidemic LDLR knockout mice may be fed either chow, HFC diet or HFC diet supplemented with 27-hydroxycholesterol (0.1% w/w) for three weeks. Then, the mice may be sacrificed and detailed characterization of liver and plasma may be performed.

C[C@@H](CO)CCC[C@@H](C)[C@H]1CC[C@H]2[C@@H]3CC=C4C[C@@H](O)CC[C@]4(C)[C@H]3CC[C@]12C [27-HC, 27-hydroxycholesterol]
Plasma cholesterol levels (LDLr−/− mice [1]; 27-HC 40 mg/kg s.c. injected groups vs control-injected groups, 3 weeks, FIG. 2A): do not show altered cholesterol levels
Plasma triglycerides (LDLr−/− mice [1]; Group D: high-fat diet, daily 27-HC 40 mg/kg s.c. for three weeks, vs Groups C and E, FIG. 2B): diminished
Liver cholesterol levels (LDLr−/− mice [2]; 27-HC 40 mg/kg s.c. injected groups vs control-injected groups, 3 weeks, FIG. 2C): do not show altered cholesterol levels
Liver triglycerides (LDLr−/− mice [2]; among high-fat diet groups C-E, FIG. 2D): no significant differences
Steatosis score, HE staining (LDLr−/− mice [3]; FIG. 2E): do not show any statistical significance or trends
Steatosis score, oil Red O staining (LDLr−/− mice [3]; FIG. 2F): do not show any statistical significance or trends
Infiltrated macrophages (MAC1 staining) (LDLr−/− mice [4]; Group D: high-fat diet, daily 27-HC for three weeks): significantly decreased
Neutrophils (NIMP staining) (LDLr−/− mice [4]; Group D: high-fat diet, daily 27-HC for three weeks, FIG. 3B): decreased neutrophils
Infiltrated macrophages (MAC1 staining) (LDLr−/− mice [4]; Group E: high-fat diet, two weeks control injections then one week 27-HC): significantly decreased
Endolysosomal cholesterol accumulation (fibroblasts): decrease endolysosomal cholesterol accumulation
Liver and systemic inflammation [5]: reduced liver and systemic inflammation
Lysosomal cholesterol accumulation [5]: less lysosomal cholesterol accumulation
